Earlier results in PubChem BioAssay AID1259410 (Chemical Carcinogenesis Research Information System (CCRIS), 2018).

Tested on: rodent tumor promotion studies, tumor incidence
Test: CCRIS tumor promotion studies
Settings: Route [Promoter]: DERMAL, Species: MOUSE

Compound: CCCCCCCCCCCCCC(=O)O[C@@H]1[C@@H](C)[C@@]2(O)[C@@H](C=C(CO)C[C@]3(O)C(=O)C(C)=C[C@@H]23)[C@@H]2C(C)(C)[C@]12OC(C)=O
- outcome (Carcinogen: DIBENZO[A,L]PYRENE, 191-30-0, Doses [Carcinogen]: 0.25, 1 NMOL IN 100 µL ACETONE, Doses [Promoter]: 2.16 NMOL IN 100 µL ACETONE 2/WK FOR 27 WK BEGINNING 1 WK POST CARCINOGEN DOSE (STUDY DURATION: 28 WK), Route [Carcinogen]: DERMAL, Strain/Sex: SENCAR/FEMALE): skin: tumor
- outcome (Carcinogen: DIBENZO[A,L]PYRENE, 191-30-0, Doses [Carcinogen]: 1.33, 4, 12 NMOL IN 100 ML ACETONE ONCE, Doses [Carcinogen]: 1.33, 4, 12 NMOL IN 100 ML ACETONE ONCE, Doses [Promoter]: 1.62 NMOL IN 100 ML ACETONE 2/WK FOR 28 WK BEGINNING 1 WK POST CARCINOGEN DOSE (STUDY DURATION: 30 WK), Route [Carcinogen]: DERMAL, Strain/Sex: SENCAR/FEMALE): skin: tumor
- outcome (Carcinogen: DIBENZO[A,L]PYRENE, 191-30-0, Doses [Carcinogen]: 4, 20, 100 NMOL IN 100 µL ACETONE ONCE, Doses [Carcinogen]: 4, 20, 100 NMOL IN 100 µL ACETONE ONCE, Doses [Promoter]: 3.24 NMOL/100 µL ACETONE 2/WK BEGINNING 2 WK POST CARCINOGEN DOSE AND CONTINUING FOR 24 WK (STUDY DURATION: 27 WK), Route [Carcinogen]: DERMAL, Strain/Sex: SENCAR/FEMALE): skin: tumor
- outcome (Carcinogen: DIBENZO[A,L]PYRENE, 191-30-0, Doses [Carcinogen]: 33.3, 100, 300 NMOL IN 100 µL ACETONE ONCE, Doses [Carcinogen]: 33.3, 100, 300 NMOL IN 100 µL ACETONE ONCE, Doses [Promoter]: 3.24 NMOL/100 µL ACETONE ONCE 1 WK POST CARCINOGEN DOSE THEN 2/WK BEGINNING 3 WK LATER AND CONTINUING FOR 11 WK (STUDY D, Route [Carcinogen]: DERMAL, Strain/Sex: SENCAR/FEMALE): skin: tumor
- outcome (Carcinogen: DIMETHYLBENZ[A]ANTHRACENE, 57-97-6, Doses [Carcinogen]: 0.2 UMOL IN O.2 ML ACETONE ONCE, Doses [Promoter]: 0, 5 UG IN 0.2 ML ACETONE 3/WK ADMINISTERED 7 D POST CARCINOGEN DOSE AND CONTINUING FOR DURATION OF STUDY (STUDY DURATIO, Route [Carcinogen]: DERMAL, Strain/Sex: SWISS/FEMALE): skin: tumor, squamous cell papilloma, keratoacanthoma
- outcome (Carcinogen: N-METHYL-N'-NITRO-N-NITROSOGUANIDINE, 70-25-7, Doses [Carcinogen]: 4 UMOL IN 200 µL ACETONE ONCE, Doses [Promoter]: 0, 10 NMOL IN 200 µL ACETONE 2/WK FOR 52 WK BEGINNING 2 WK POST CARCINOGEN DOSE (STUDY DURATION: 52 WK), Route [Carcinogen]: DERMAL, Strain/Sex: C3H/CB/S/GEN/FEMALE): skin: tumor
- outcome (Carcinogen: N-METHYL-N'-NITRO-N-NITROSOGUANIDINE; 70-25-7; Doses [Carcinogen]: 4 UMOL IN 200 µL ACETONE ONCE; Doses [Promoter]: 0; 10 NMOL IN 200 µL ACETONE 2/WK FOR 52 WK BEGINNING 2 WK POST CARCINOGEN DOSE STUDY DURATION: 52 WK), Route [Carcinogen]: DERMAL, Strain/Sex: C3H/FEMALE): skin: tumor
- outcome (Carcinogen: PHENOXYOXIRANE, 79526-11-7, Doses [Carcinogen]: 5 UMOL IN 0.2 ML 15% DMSO IN ACETONE ONCE, Doses [Promoter]: 0, 15 NMOL IN 0.1 ML ACETONE ONCE 18-24 HR PRIOR TO CARCINOGEN DOSE THEN BEGINNING 1 WK LATER 2/WK FOR DURATION OF STUDY, Route [Carcinogen]: DERMAL, Strain/Sex: ICR/FEMALE): skin: papilloma
- outcome (Carcinogen: PHENYL VINYL ETHER, 766-94-9, Doses [Carcinogen]: 5 UMOL IN 0.2 ML 15% DMSO IN ACETONE ONCE, Doses [Promoter]: 0, 15 NMOL IN 0.1 ML ACETONE ONCE 18-24 HR PRIOR TO CARCINOGEN DOSE THEN BEGINNING 1 WK LATER 2/WK FOR DURATION OF STUDY, Route [Carcinogen]: DERMAL, Strain/Sex: ICR/FEMALE): skin: papilloma
- outcome (Carcinogen: SYN-1,2-DIHYDROXY-3,4-EPOXY-1,2,3,4-TETRAHYDRO-5,6-DIMETHYLCHRYSENE, 139562-15-5, Doses [Carcinogen]: 100 NMOL IN 0.1 ML ACETONE ONCE, Doses [Promoter]: 0, 2.5 UG IN 0.1 ML ACETONE 3/WK FOR 20 WK BEGINNING 10 D POST CARCINOGEN DOSE (STUDY DURATION: 20 WK), Route [Carcinogen]: DERMAL, Strain/Sex: CD-1/FEMALE): skin: tumor
- outcome (Carcinogen: THIRAM, 137-26-8, Doses [Carcinogen]: 100 MG/KG BW 3/WK FOR 3 WK, Doses [Promoter]: 0, 5 UG IN 100 µL ACETONE 3/WK FOR 51 WK BEGINNING 1 WK POST CARCINOGEN TREATMENT (STUDY DURATION: 54 WK), Route [Carcinogen]: DERMAL, Strain/Sex: SWISS/FEMALE): skin: tumor
- outcome (Carcinogen: THIRAM, 137-26-8, Doses [Carcinogen]: 100 MG/KG BW IN 100 µL DMSO ONCE, Doses [Promoter]: 5 UG IN 100 µL ACETONE 3/WK BEGINNING 1 WK POST CARCINOGEN DOSE (STUDY DURATION: 52 WK), Route [Carcinogen]: DERMAL, Strain/Sex: SWISS/MALE): skin: tumor
- outcome (Carcinogen: THIRAM, 137-26-8, Doses [Carcinogen]: 100 MG/KG BW IN 100 µL DMSO ONCE, Doses [Promoter]: 5 UG IN 100 µL ACETONE 3/WK FOR 3 WK BEGINNING 1 WK POST CARCINOGEN DOSE (STUDY DURATION: 52 WK), Route [Carcinogen]: DERMAL, Strain/Sex: SWISS/FEMALE): skin: tumor
- outcome (Carcinogen: THIRAM, 137-26-8, Doses [Carcinogen]: 100 MG/KG BW IN 100 µL DMSO ONCE, Doses [Promoter]: 5 UG IN 100 µL ACETONE 3/WK FOR 51 WK BEGINNING 1 WK POST CARCINOGEN DOSE (STUDY DURATION: 52 WK), Route [Carcinogen]: DERMAL, Strain/Sex: SWISS/MALE): skin: tumor
- outcome (Carcinogen: TRANS-4,5-DIHYDROBENZO[J]FLUORANTHENE-4,5-DIOL, 106542-80-7, Doses [Carcinogen]: 0, 1, 3 UMOL (TOTAL DOSE) IN ACETONE SOLUTION 1/2 D FOR 10 DOSES, Doses [Carcinogen]: 0, 1, 3 UMOL (TOTAL DOSE) IN ACETONE SOLUTION 1/2 D FOR 10 DOSES, Doses [Promoter]: 2.5 UG IN ACETONE 3/WK BEGINNING 10 D POST LAST CARCINOGEN DOSE AND CONTINUING FOR 20 WK (STUDY DURATION: 23 WK), Route [Carcinogen]: DERMAL, Strain/Sex: CD-1/FEMALE): skin: tumors
- outcome (Carcinogen: TRANS-9,10-DIHYDRO-5,9,10-TRIHYDROXYBENZO[B]FLUORANTHENE, 114451-04-6, Doses [Carcinogen]: 0, 0.04, 0.12, 0.4 UMOL (TOTAL DOSE) APPLIED IN SUBDOSES 1/2 D FOR 5 WK, Doses [Carcinogen]: 0, 0.04, 0.12, 0.4 UMOL (TOTAL DOSE) APPLIED IN SUBDOSES 1/2 D FOR 5 WK, Doses [Promoter]: 2.5 UG IN 100 µL ACETONE 3/WK FOR 20 WK BEGINNING 10 D POST LAST CARCINOGEN DOSE (STUDY DURATION: 26 WK), Route [Carcinogen]: DERMAL, Strain/Sex: CD-1/FEMALE): skin: tumor
- outcome (Carcinogen: TRANS-9,10-DIHYDRO-6,9,10-TRIHYDROXYBENZO[B]FLUORANTHENE, 114451-05-7, Doses [Carcinogen]: 0, 0.4 UMOL (TOTAL DOSE) APPLIED IN SUBDOSES 1/2 D FOR 5 WK, Doses [Promoter]: 2.5 UG IN 100 µL ACETONE 3/WK FOR 20 WK BEGINNING 10 D POST LAST CARCINOGEN DOSE (STUDY DURATION: 26 WK), Route [Carcinogen]: DERMAL, Strain/Sex: CD-1/FEMALE): skin: tumor
- outcome (Carcinogen: TRANS-9,10-DIHYDROBENZO[J]FLUORANTHENE-9,10-DIOL, 76479-14-6, Doses [Carcinogen]: 0, 3 UMOL (TOTAL DOSE) IN ACETONE SOLUTION 1/2 D FOR 10 DOSES, Doses [Promoter]: 2.5 UG IN ACETONE 3/WK BEGINNING 10 D POST LAST CARCINOGEN DOSE AND CONTINUING FOR 20 WK (STUDY DURATION: 23 WK), Route [Carcinogen]: DERMAL, Strain/Sex: CD-1/FEMALE): skin: tumors
- outcome (Carcinogen: VINYL CARBAMATE EPOXIDE, 82617-23-0, Doses [Carcinogen]: 0, 5.8, 11.5 UMOL IN 0.2 ML 15% DMSO 1/WK FOR 5 WK, Doses [Carcinogen]: 0, 5.8, 11.5 UMOL IN 0.2 ML 15% DMSO 1/WK FOR 5 WK, Doses [Promoter]: 0, 2.5 UG IN 0.1 ML ACETONE 18-24 HR PRIOR TO EACH CARCINOGEN DOSE THEN 2/WK FOR DURATION OF STUDY (STUDY DURATION: 22 W, Route [Carcinogen]: DERMAL, Strain/Sex: CD-1/FEMALE): skin: papilloma
- outcome (Carcinogen: VINYL CARBAMATE EPOXIDE, 82617-23-0, Doses [Carcinogen]: 1.5, 11.5 UMOL IN 0.2 ML 15% DMSO ONCE, Doses [Promoter]: 0, 2.5 UG IN 0.1 ML ACETONE 18-24 HR PRIOR TO CARCINOGEN DOSE THEN 2/WK FOR DURATION OF STUDY (STUDY DURATION: 22 WK), Route [Carcinogen]: DERMAL, Strain/Sex: CD-1/FEMALE): skin: papilloma
- outcome (Carcinogen: VINYL CARBAMATE, 15805-73-9, Doses [Carcinogen]: 0, 5.8, 11.5 UMOL IN 0.2 ML 15% DMSO 1/WK FOR 5 WK, Doses [Carcinogen]: 0, 5.8, 11.5 UMOL IN 0.2 ML 15% DMSO 1/WK FOR 5 WK, Doses [Promoter]: 0, 2.5 UG IN 0.1 ML ACETONE 18-24 HR PRIOR TO EACH CARCINOGEN DOSE THEN 2/WK FOR DURATION OF STUDY (STUDY DURATION: 22 W, Route [Carcinogen]: DERMAL, Strain/Sex: CD-1/FEMALE): skin: papilloma
- outcome (Carcinogen: VINYL CARBAMATE, 15805-73-9, Doses [Carcinogen]: 1.15, 11.5 UMOL IN 0.2 ML 15% DMSO ONCE, Doses [Promoter]: 0, 2.5 UG IN 0.1 ML ACETONE 18-24 HR PRIOR TO CARCINOGEN DOSE THEN 2/WK FOR DURATION OF STUDY (STUDY DURATION: 22 WK), Route [Carcinogen]: DERMAL, Strain/Sex: CD-1/FEMALE): skin: papilloma
- outcome (Carcinogen: X-RAY, Doses [Carcinogen]: 4.2 GY TO MALE MICE OF THE PARENT GENERATION, Doses [Promoter]: 0, 6.15 UG IN 0.1 ML ACETONE 2/WK FOR 24 WK ADMINISTERED TO F1 OFFSPRING OF IRRADIATED MALES BEGINNING AT 4 MO OF AGE (S, Route [Carcinogen]: WHOLE-BODY IRRADIATION, Strain/Sex: SHR/FEMALE): skin: tumor
- outcome (Carcinogen: X-RAY, Doses [Carcinogen]: 4.2 GY TO MALE MICE OF THE PARENT GENERATION, Doses [Promoter]: 0, 6.15 UG IN 0.1 ML ACETONE 2/WK FOR 24 WK ADMINISTERED TO F1 OFFSPRING OF IRRADIATED MALES BEGINNING AT 4 MO OF AGE (S, Route [Carcinogen]: WHOLE-BODY IRRADIATION, Strain/Sex: SHR/MALE): skin: tumor
- outcome (Carcinogen: X-RAY, Doses [Carcinogen]: 4.2 GY TO MALE MICE OF THE PARENT GENERATION, Doses [Promoter]: 0, 6.15 UG IN 0.1 ML ACETONE 2/WK FOR 24 WK ADMINISTERED TO F2 GENERATION OF IRRADIATED MALES BEGINNING AT 4 MO OF AGE (, Route [Carcinogen]: WHOLE-BODY IRRADIATION, Strain/Sex: SHR/FEMALE): skin: tumor
- outcome (Carcinogen: X-RAY, Doses [Carcinogen]: 4.2 GY TO MALE MICE OF THE PARENT GENERATION, Doses [Promoter]: 0, 6.15 UG IN 0.1 ML ACETONE 2/WK FOR 24 WK ADMINISTERED TO F2 GENERATION OF IRRADIATED MALES BEGINNING AT 4 MO OF AGE (, Route [Carcinogen]: WHOLE-BODY IRRADIATION, Strain/Sex: SHR/MALE): skin: tumor
